Assays:
[1] = Solid state stability, PXRD; type: physicochemical; set-up: key: X: crystalline; S: stable
Procedure: Thus, the X-ray diffraction patterns of the co-crystals of provided herein were measured on a PANalytical X'PertPRO Powder X-ray diffractometer equipped with goniometer of θ/θ configuration and X'celerator detector. The Cu-anode X-ray tube was operated at 45 kV and 40 mA. The experiments were conducted over the 2θ range of 2.0°-50.0°, 0.030° step size and 189.865 time per step (seconds) and all the co-crystals were characterized with above mentioned method.
(§1) The samples were analyzed by PXRD, assay and related substances by HPLC.

[2] = Solid state stability, physical and chemical (PXRD and HPLC), overall finding
Procedure: as §1

[3] = Solid state stability, HPLC meloxicam co-crystal assay; type: physicochemical; details: for A %: Co-former Assay % / M %: Meloxicam Assay %: samples as per Examples 1, 2, 3
Procedure: • Instrumentation: Waters HPLC system having 2695 model pump having UV/PDA detector with Empower chromatography software or its equivalent. • Column: (A) Unison UK C18 column; (B) YMC Trait C18 EXRS Column, 250×4.6 mm, 5.0 micron; (C) Water Atlantis T3, 250×4.6 mm, 5 micron. • Mobile Phase: (A) methanol-acetonitrile-dipotassium phosphate buffer; or (B) acetonitrile-Sodium sulfate buffer solution • Detection wavelength: 210 nm and 360 nm
as §1

[4] = Solid state stability, impurities by HPLC; type: physicochemical
Procedure: A Zorbax Eclipse XDB C18 column was used with the mobile phase of methanol-acetonitrile-10 mM phosphate buffer solution at the detection wavelength of 350 nm and 260 nm. • Instrumentation: Waters HPLC system having 2695 model pump having UV/PDA detector with Empower chromatography software or its equivalent. • Chemicals: Dipotassium hydrogen phosphate, orthophosphoric acid, acetonitrile, water, sodium hydroxide, methanol. • Column: Zorbax Eclipse XDB C18 column, 250×4.6 mm, 5 μm. • Elution: Gradient. • Flow rate: 0.8 mL/min.
as §1

[5] = 25° C./60% RH, 1 mo., samples as per Example 7 or 17
[6] = 25° C./60% RH, 1 mo., samples as per Examples 1, 2, 3
[7] = 25° C./60% RH, 2 mo., samples as per Example 7 or 17
[8] = 25° C./60% RH, 2 mo., samples as per Examples 1, 2, 3
[9] = 25° C./60% RH, 3 mo., samples as per Example 7 or 17
[10] = 25° C./60% RH, 3 mo., samples as per Examples 1, 2, 3
[11] = 25° C./60% RH, Initial, samples as per Example 7 or 17
[12] = 25° C./60% RH, Initial, samples as per Examples 1, 2, 3
[13] = 40° C./75% RH, 1 mo., samples as per Example 7, 17 or 14
[14] = 40° C./75% RH, 1 mo., samples as per Examples 1, 2, 3
[15] = 40° C./75% RH, 2 mo., samples as per Example 7, 17 or 14
[16] = 40° C./75% RH, 2 mo., samples as per Examples 1, 2, 3
[17] = 40° C./75% RH, 3 mo., samples as per Example 7 or 17
[18] = 40° C./75% RH, 3 mo., samples as per Examples 1, 2, 3
[19] = 40° C./75% RH, Initial, samples as per Example 7, 17 or 14
[20] = 40° C./75% RH, Initial, samples as per Examples 1, 2, 3
[21] = 40° C./75% RH and 25° C./60% RH, three months

Cc1cnc(NC(=O)C2=C(O)c3ccccc3S(=O)(=O)N2C)s1.O=C(O)c1ccc2ccccc2c1O
PXRD [1, 5]: S | PXRD [1, 6]: S | PXRD [1, 7]: S | PXRD [1, 8]: S | PXRD [1, 9]: S | PXRD [1, 10]: S | PXRD [1, 11]: X | PXRD [1, 12]: X | PXRD [1, 13]: S | PXRD [1, 14]: S | PXRD [1, 15]: S | PXRD [1, 16]: S | PXRD [1, 17]: S | PXRD [1, 18]: S | PXRD [1, 19]: X | PXRD [1, 20]: X | physical and chemical stability [2, 21]: physically and chemically stable | Assay (% by HPLC) M % (Meloxicam Assay %) [3, 5]: 65.0% | A %: Co-former Assay % ([3]; 25° C./60% RH, 1 mo.): 34.5% | M %: Meloxicam Assay % ([3]; 25° C./60% RH, 1 mo.): 64.7% | Assay (% by HPLC) M % (Meloxicam Assay %) [3, 7]: 63.5% | A %: Co-former Assay % ([3]; 25° C./60% RH, 2 mo.): 35.0% | M %: Meloxicam Assay % ([3]; 25° C./60% RH, 2 mo.): 65.0% | Assay (% by HPLC) M % (Meloxicam Assay %) [3, 9]: 64.3% | A %: Co-former Assay % ([3]; 25° C./60% RH, 3 mo.): 34.0% | M %: Meloxicam Assay % ([3]; 25° C./60% RH, 3 mo.): 64.6% | Assay (% by HPLC) M % (Meloxicam Assay %) [3, 11]: 65.1% | A %: Co-former Assay % ([3]; 25° C./60% RH, Initial): 34.2% | M %: Meloxicam Assay % ([3]; 25° C./60% RH, Initial): 64.3% | Assay (% by HPLC) M % (Meloxicam Assay %) [3, 13]: 64.7% | A %: Co-former Assay % ([3]; 40° C./75% RH, 1 mo.): 34.9% | M %: Meloxicam Assay % ([3]; 40° C./75% RH, 1 mo.): 64.9% | Assay (% by HPLC) M % (Meloxicam Assay %) [3, 15]: 64.0% | M %: Meloxicam Assay % ([3]; 40° C./75% RH, 2 mo.): 64.8% | Assay (% by HPLC) M % (Meloxicam Assay %) [3, 17]: 64.4% | A %: Co-former Assay % ([3]; 40° C./75% RH, 3 mo.): 34.2% | M %: Meloxicam Assay % ([3]; 40° C./75% RH, 3 mo.): 65.5% | Assay (% by HPLC) M % (Meloxicam Assay %) [3, 19]: 65.2% | A %: Co-former Assay % ([3]; 40° C./75% RH, Initial): 34.2% | M %: Meloxicam Assay % ([3]; 40° C./75% RH, Initial): 64.3% | Impurities (% w/w, by HPLC) Methyl Meloxicam [4, 5]: 0.01 % w/w | Impurities (% w/w, by HPLC) Other* (any other individual impurity) [4, 5]: 0.03 % w/w | Impurities (% w/w, by HPLC) Total [4, 5]: 0.08 % w/w | Impurities (% w/w, by HPLC) Methyl Meloxicam [4, 7]: 0.01 % w/w | Impurities (% w/w, by HPLC) Other* (any other individual impurity) [4, 7]: 0.03 % w/w | Impurities (% w/w, by HPLC) Total [4, 7]: 0.13 % w/w | Impurities (% w/w, by HPLC) Methyl Meloxicam [4, 9]: 0.01 % w/w | Impurities (% w/w, by HPLC) Other* (any other individual impurity) [4, 9]: 0.03 % w/w | Impurities (% w/w, by HPLC) Total [4, 9]: 0.08 % w/w | Impurities (% w/w, by HPLC) Methyl Meloxicam [4, 11]: 0.01 % w/w | Impurities (% w/w, by HPLC) Other* (any other individual impurity) [4, 11]: 0.02 % w/w | Impurities (% w/w, by HPLC) Total [4, 11]: 0.05 % w/w | Impurities (% w/w, by HPLC) Methyl Meloxicam [4, 13]: 0.01 % w/w | Impurities (% w/w, by HPLC) Other* (any other individual impurity) [4, 13]: 0.03 % w/w | Impurities (% w/w, by HPLC) Total [4, 13]: 0.09 % w/w | Impurities (% w/w, by HPLC) Methyl Meloxicam [4, 15]: 0.01 % w/w | Impurities (% w/w, by HPLC) Other* (any other individual impurity) [4, 15]: 0.03 % w/w | Impurities (% w/w, by HPLC) Total [4, 15]: 0.13 % w/w | Impurities (% w/w, by HPLC) Methyl Meloxicam [4, 17]: 0.01 % w/w | Impurities (% w/w, by HPLC) Other* (any other individual impurity) [4, 17]: 0.03 % w/w | Impurities (% w/w, by HPLC) Total [4, 17]: 0.10 % w/w | Impurities (% w/w, by HPLC) Methyl Meloxicam [4, 19]: 0.01 % w/w | Impurities (% w/w, by HPLC) Other* (any other individual impurity) [4, 19]: 0.03 % w/w | Impurities (% w/w, by HPLC) Total [4, 19]: 0.06 % w/w | Meloxicam Related Compounds A, B, C, and D by HPLC ([4]; any timepoint from initiation up to 3 months, 40° C./75% RH and 25° C./60% RH): ^#Meloxicam Related Compounds A, B, C, and D (see Table 4) were not detectable at any timepoint from initiation up to 3 months.

CC(=O)Oc1ccccc1C(=O)O.Cc1cnc(NC(=O)C2=C(O)c3ccccc3S(=O)(=O)N2C)s1 [Meloxicam:Acetylsalicylic acid (1:1)]
PXRD [1, 6]: S | PXRD [1, 8]: S | PXRD [1, 10]: S | PXRD [1, 12]: X | PXRD [1, 14]: S | PXRD [1, 16]: S | PXRD [1, 18]: S | PXRD [1, 20]: X | physical and chemical stability [2, 21]: physically and chemically stable | A %: Co-former Assay % ([3]; 25° C./60% RH, 1 mo.): 33.4% | M %: Meloxicam Assay % ([3]; 25° C./60% RH, 1 mo.): 66.0% | A %: Co-former Assay % ([3]; 25° C./60% RH, 2 mo.): 33.0% | M %: Meloxicam Assay % ([3]; 25° C./60% RH, 2 mo.): 66.0% | A %: Co-former Assay % ([3]; 25° C./60% RH, 3 mo.): 33.0% | M %: Meloxicam Assay % ([3]; 25° C./60% RH, 3 mo.): 65.7% | A %: Co-former Assay % ([3]; 25° C./60% RH, Initial): 33.6% | M %: Meloxicam Assay % ([3]; 25° C./60% RH, Initial): 65.7% | A %: Co-former Assay % ([3]; 40° C./75% RH, 1 mo.): 33.4% | M %: Meloxicam Assay % ([3]; 40° C./75% RH, 1 mo.): 65.9% | A %: Co-former Assay % ([3]; 40° C./75% RH, 2 mo.): 32.8% | M %: Meloxicam Assay % ([3]; 40° C./75% RH, 2 mo.): 65.8% | A %: Co-former Assay % ([3]; 40° C./75% RH, 3 mo.): 33.0% | M %: Meloxicam Assay % ([3]; 40° C./75% RH, 3 mo.): 65.4% | A %: Co-former Assay % ([3]; 40° C./75% RH, Initial): 33.6% | M %: Meloxicam Assay % ([3]; 40° C./75% RH, Initial): 65.7%

Cc1cnc(NC(=O)C2=C(O)c3ccccc3S(=O)(=O)N2C)s1.O=C(O)c1ccccc1O [Meloxicam:Salicylic acid Form III (1:1)]
PXRD [1, 6]: S | PXRD [1, 8]: S | PXRD [1, 10]: S | PXRD [1, 12]: X | PXRD [1, 13]: S | PXRD [1, 14]: S | PXRD [1, 15]: S | PXRD [1, 16]: S | PXRD [1, 18]: S | PXRD [1, 19]: X | PXRD [1, 20]: X | physical and chemical stability [2, 21]: physically and chemically stable | physical and chemical stability ([2]; 40° C./75% RH, at least 2 months): physically and chemically stable | M %: Meloxicam Assay % ([3]; 25° C./60% RH, 1 mo.): 71.7% | A %: Co-former Assay % ([3]; 25° C./60% RH, 2 mo.): 27.2% | M %: Meloxicam Assay % ([3]; 25° C./60% RH, 2 mo.): 72.0% | A %: Co-former Assay % ([3]; 25° C./60% RH, 3 mo.): 27.6% | M %: Meloxicam Assay % ([3]; 25° C./60% RH, 3 mo.): 72.1% | A %: Co-former Assay % ([3]; 25° C./60% RH, Initial): 27.5% | M %: Meloxicam Assay % ([3]; 25° C./60% RH, Initial): 71.3% | Assay (% by HPLC) M % (Meloxicam Assay %) [3, 13]: 71.4% | M %: Meloxicam Assay % ([3]; 40° C./75% RH, 1 mo.): 72.0% | Assay (% by HPLC) M % (Meloxicam Assay %) [3, 15]: 71.2% | A %: Co-former Assay % ([3]; 40° C./75% RH, 2 mo.): 27.0% | M %: Meloxicam Assay % ([3]; 40° C./75% RH, 2 mo.): 71.5% | A %: Co-former Assay % ([3]; 40° C./75% RH, 3 mo.): 27.4% | M %: Meloxicam Assay % ([3]; 40° C./75% RH, 3 mo.): 71.8% | Assay (% by HPLC) M % (Meloxicam Assay %) [3, 19]: 71.1% | A %: Co-former Assay % ([3]; 40° C./75% RH, Initial): 27.5% | M %: Meloxicam Assay % ([3]; 40° C./75% RH, Initial): 71.3% | Impurities (% w/w, by HPLC) Ethyl Meloxicam [4, 13]: 0.003 % w/w | Impurities (% w/w, by HPLC) Other* (any other individual impurity) [4, 13]: 0.01 % w/w | Impurities (% w/w, by HPLC) Total [4, 13]: 0.04 % w/w | Impurities (% w/w, by HPLC) Methyl Meloxicam [4, 15]: 0.001 % w/w | Impurities (% w/w, by HPLC) Other* (any other individual impurity) [4, 15]: 0.01 % w/w | Impurities (% w/w, by HPLC) Total [4, 15]: 0.01 % w/w | Impurities (% w/w, by HPLC) Other* (any other individual impurity) [4, 19]: 0.01 % w/w | Impurities (% w/w, by HPLC) Total [4, 19]: 0.01 % w/w | Meloxicam Related Compounds A, B, C, and D by HPLC ([4]; any timepoint from initiation up to 2 months, 40° C./75% RH): ^#Meloxicam Related Compounds A, B, C, and D (see Table 4a) were not detectable at any timepoint from initiation up to 2 months.
